Source: patent publication US7781591B2, “Substituted 3-cyanopyridines as protein kinase inhibitors” (Wyeth LLC, priority 2006, dated 2010)
pIC50: −log10 of the molar value.

Assays:
Type in all cases: biochemical
[1] = biological target: T1, purified recombinant active kinase domain of full length PKC theta (amino acids 362-706) (Homo sapiens, UniProt Q04759); assay: Radioactive kinase assay for inhibition of the active kinase domain (KD) of PKCθ; conditions: active kinase domain of PKC theta (amino acids 362-706), average value, read-out: IC50 PKCθKD
T1 construct: active kinase domain of full length PKC theta (amino acids 362-706)
T1 sequence (Q04759 362-706): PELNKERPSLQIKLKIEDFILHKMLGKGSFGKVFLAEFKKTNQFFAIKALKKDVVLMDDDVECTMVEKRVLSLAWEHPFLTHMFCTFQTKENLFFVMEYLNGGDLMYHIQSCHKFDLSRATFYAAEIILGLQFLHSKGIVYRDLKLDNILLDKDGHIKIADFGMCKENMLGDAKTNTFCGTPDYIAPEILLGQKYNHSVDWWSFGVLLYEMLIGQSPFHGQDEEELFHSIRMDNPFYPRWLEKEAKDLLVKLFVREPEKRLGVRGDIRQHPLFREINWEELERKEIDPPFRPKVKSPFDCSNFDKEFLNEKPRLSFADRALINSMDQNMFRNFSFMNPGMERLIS
Procedure: A Radioactive Kinase Assay for Inhibition of the Active Kinase Domain (KD) of PKCθ
(§1) This assay is based on the phosphorylation of a biotinylated substrate by a kinase utilizing radiolabeled ATP (ATP γ P33). The substrate was a biotinylated peptide with a sequence of biotin-[…]-C(O)NH2. The enzyme was purified recombinant active kinase domain of full length PKC theta (amino acids 362-706). The assay buffer was composed of 100 mM Hepes, pH7.5, 2 mM MgCl2, 20 mM β-glycerophosphate and 0.008% TritonX 100. A reaction mixture of ATP, ATP γ P33 (PerkinElmer), DTT, and the enzyme was prepared in the assay buffer and added to a 96-well polypropylene plate. The compound (diluted in DMSO in a separate 96-well polypropylene plate) was added to the reaction mixture and incubated at room temperature. Following the incubation, the peptide substrate was added to the reaction mixture to initiate the enzymatic reaction. The reaction was terminated with the addition of a stop solution (100 mM EDTA, 0.2% TritonX100, and 20 mM NaHPO4) and transferred from the assay plate to a washed streptavidin-coated 96-well scintiplate (PerkinElmer). The scintiplate was incubated at room temperature, washed in PBS with 0.1% TritonX 100, and counted in the 1450 Microbeta Trilux (Wallac, Version 2.60). Counts were recorded for each well as corrected counts per minute (CCPM). The counts were considered corrected because they were adjusted according to a P33 normalization protocol, which corrects for efficiency and background differences between the instrument detectors (software version 4.40.01).

[2] = biological target: T2, purified recombinant full length PKC theta (Panvera, P2996) (Homo sapiens, UniProt Q04759); assay: Radioactive kinase assay for inhibition of full length (FL) PKCθ; conditions: average value
T2 construct: purified recombinant full length PKC theta (Panvera, P2996); purchased Panvera P2996
T2 sequence (Q04759 whole entry): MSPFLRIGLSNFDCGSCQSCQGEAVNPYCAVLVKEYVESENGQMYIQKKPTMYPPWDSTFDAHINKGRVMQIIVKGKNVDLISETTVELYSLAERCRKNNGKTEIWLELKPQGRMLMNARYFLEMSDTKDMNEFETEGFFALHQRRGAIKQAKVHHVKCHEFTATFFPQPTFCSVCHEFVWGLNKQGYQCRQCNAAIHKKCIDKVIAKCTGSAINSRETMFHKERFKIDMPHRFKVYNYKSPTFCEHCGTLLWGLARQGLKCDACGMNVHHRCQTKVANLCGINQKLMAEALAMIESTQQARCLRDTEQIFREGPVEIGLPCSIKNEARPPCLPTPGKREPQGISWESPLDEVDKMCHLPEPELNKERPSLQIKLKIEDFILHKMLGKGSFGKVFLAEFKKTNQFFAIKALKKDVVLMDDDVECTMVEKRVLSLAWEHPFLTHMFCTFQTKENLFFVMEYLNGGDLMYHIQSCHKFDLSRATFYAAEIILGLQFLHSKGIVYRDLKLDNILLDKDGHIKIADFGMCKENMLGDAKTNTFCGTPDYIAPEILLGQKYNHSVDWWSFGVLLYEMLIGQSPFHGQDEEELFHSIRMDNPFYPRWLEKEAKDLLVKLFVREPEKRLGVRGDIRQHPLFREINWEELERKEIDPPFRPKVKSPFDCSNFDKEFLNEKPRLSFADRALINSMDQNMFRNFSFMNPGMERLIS
Procedure: as §1, with “The enzyme was purified recombinant active kinase domain of full length PKC theta (amino acids 362-706).” left out, “The scintiplate was incubated at room temperature, washed in PBS with 0.1% TritonX 100, and counted in the 1450 Microbeta Trilux (Wallac, Version 2.60).” left out
A Radioactive Kinase Assay for Inhibition of Full Length (FL) PKCθ Inhibitors
This assay differs from what was described above in that the enzyme used was purified recombinant full length PKC theta (Panvera, P2996).

[3] = biological target: T3, human PKCθ full length enzyme (Homo sapiens, UniProt Q04759); assay: PKCθ IMAP assay (fluorescence polarization); conditions: human PKCθ full length enzyme, IMAP; average value; read-out: IC50 PKCθ IMAP
T3 construct: human PKCθ full length enzyme (Panvera Cat# P2996); purchased Panvera P2996
T3 sequence (Q04759 whole entry): as above

| pIC50 [1] | pIC50 [2] | pIC50 [3] | Compound |
| --- | --- | --- | --- |
| 6.85 | 7.08 | 6.85 | COc1ccc(-c2cncc(C#N)c2Nc2ccc3[nH]ccc3c2)cc1OC [Compound 101, 5-(3,4-dimethoxyphenyl)-4-(1H-indol-5-ylamino)nicotinonitrile] |
| 5.25 |  |  | COc1ccc(-c2cncc(C#N)c2Nc2cccc3cnccc23)cc1OC [Compound 103, 5-(3,4-dimethoxyphenyl)-4-(isoquinolin-5-ylamino)nicotinonitrile] |
| 6.82 | 7.40 | 7.89 | COc1ccc(-c2cncc(C#N)c2Nc2cccc3[nH]ccc23)cc1OC [Compound 109, 5-(3,4-dimethoxyphenyl)-4-(1H-indol-4-ylamino)nicotinonitrile] |
| 5.18 |  |  | COc1ccc(-c2cncc(C#N)c2Nc2cccc3ncccc23)cc1OC [Compound 104, 5-(3,4-dimethoxyphenyl)-4-(quinolin-5-ylamino)nicotinonitrile] |
| 6.02 |  |  | COc1ccc(-c2cncc(C#N)c2Nc2cccc3nsnc23)cc1OC [Compound 102, 4-(2,1,3-benzothiadiazol-4-ylamino)-5-(3,4-dimethoxyphenyl)nicotinonitrile] |

| Compound | pIC50 [1] | pIC50 [2] | pIC50 [3] |
| --- | --- | --- | --- |
| COc1ccc(-c2cncc(C#N)c2Nc2ccc3cc[nH]c3c2)cc1OC [Compound 108, 5-(3,4-dimethoxyphenyl)-4-(1H-indol-6-ylamino)nicotinonitrile] | 6.00 | 5.65 | 6.35 |
